Reference: publication PMC9950073, “Alleviation of arthritis through prevention of neutrophil extracellular traps by an orally available inhibitor of protein arginine deiminase 4” (Scientific Reports, 2023)
pEC50, pIC50: −log10 of the molar value.

Tests used:
[1] = Microsomal stability, MLM; format: in vitro ADME, mouse; details: 1 µM, liver microsomes 0.5 mg/mL; one range given for HLM/MLM/DLM/RLM
Protocol: Microsomal stability: Liver microsomes (0.5 mg/mL) from different species were incubated with JBI-589 (1 µM) with or without NADPH (1 mM) at 37 °C for 30 min in potassium phosphate buffer (pH 7.4) and then reaction was stopped with quenching solution (0.5% Formic acid in internal standard (IS) containing ACN). Resulting samples were centrifuged and supernatant was taken for LC–MS/MS analysis. Percent metabolism was calculated as follows: % Metabolized: [1 − (test area ratio/control area ratio)] *100.

CYP2C19 = molecular target: T1, CYP2C19 (Homo sapiens, UniProt P33261); assay: CYP inhibition in human liver microsome, CYP2C19; format: in vitro ADME
T1 construct: from tissue; host or cells: human liver microsomes
Protocol: CYP inhibition: Human liver microsome (0.1–0.5 mg/mL for various CYPs) and appropriate probe substrates (2.5–20 µM) were incubated in potassium phosphate buffer with or without JBI-589 for 5 min at 37 °C. The reaction was initiated by addition of NADPH (1 mM), incubated at 37 °C for 10 min and quenched (0.5% Formic acid in internal standard (IS) containing ACN). Samples were then centrifuged and taken for LC–MS/MS analysis. Percent change in metabolite formation for each substrate under above conditions using formula: Percent inhibition = [1 − (test area ratio/control area ratio)] *100.

Mice PK study = format: in vivo, Balb/c mice
Source text: Institutional Animal Ethical Committee (IAEC) of Jubilant Biosys Ltd (IAEC/JDC/2019/188R (for Mice) nominated by CPCSEA (Committee for the Purpose of Control and Supervision of Experiments on Animals) approved the mice pharmacokinetic experiments. Male Balb/c mice (~ 6–8 weeks old with body weight range of 22–25 g) were procured from Vivo Biotech, Hyderabad, India. Rodent feed (manufactured by Altromin Spezialfutter GmbH & Co. KG., ImSeelenkamp20, D-32791 Lage), and water was provided ad libitum. Intravenous (IV) and oral (PO) pharmacokinetics studies were done at doses of 2 mg/Kg and 10 mg/Kg, respectively at a dose volume of 10 mL/Kg. Sparse sampling was done with three mice at each time point. Blood (~ 100 µL) was collected from retro-orbital plexus at 0.12, 0.25, 0.5, 1, 2, 4, 8 and 24 h for IV and 0.25, 0.5, 1, 2, 4, 8, 10 and 24 h for PO route, in tubes containing K2 and EDTA as anticoagulant. It was centrifuged for 5 min at 10,000 rpm in a refrigerated centrifuge (Biofuge, Heraeus, Germany) maintained at 4 °C for plasma separation. For oral dosing of JBI-589 suspension formulation was prepared using 0.5% Tween-80 and 0.5% methyl cellulose (0.5% in water), while for IV dosing 5% DMSO, 5% Solutol:ethanol (1:1, v/v) and 90% normal saline was used.

[2] = tested on: histone H3 citrullination in human neutrophils; assay: Citrullination assay in human neutrophils (citrullinated H3 ELISA); format: cell-based; details: Neutrophil
Source text: All blood samples from healthy donors who participated in this study were obtained after informed consent in accordance with relevant guidelines and regulations given by the ACE Independent ethics committee for Jubilant Biosys Ltd and Office of Clinical Investigations at Boston Children’s Hospital. The ACE Independent ethics committee, Bangalore, approved the use of human whole blood/PBMC/Enriched Subset in Jubilant Biosys Ltd investigations, Drug Controller General of India (DCGI) Reg No. ECR/141/Indt/KA/2013. Briefly, 10 mL K2EDTA vacutainers were used to collect fresh blood from healthy donors (BD vacutainer, Catalog No: BD 367525). A total of 50 ml of blood was taken from a single, healthy human donor. Neutrophils were isolated from human blood using the EasySep Direct Human Neutrophil Isolation Kit, according to the manufacturer's instructions (Stem Cell Technology, Catalog No: 19666). […]
Citrullinated H3 Enzyme linked immunosorbent Assay (ELISA) was performed as per manufacturer’s instructions (Cayman chemicals, Catalog No: 501620). Neutrophils obtained as mentioned above were counted and cell suspension was prepared in complete RPMI media. […] IC50 values were determined by sigmoidal dose–response curve (variable slope) in Graph Pad Prism 5 software.

[3] = male, Balb/c, mouse, plasma, 2 mg/kg, IV
[4] = male, Balb/c, mouse, plasma, 10 mg/kg, PO

T1 sequence (P33261 whole entry): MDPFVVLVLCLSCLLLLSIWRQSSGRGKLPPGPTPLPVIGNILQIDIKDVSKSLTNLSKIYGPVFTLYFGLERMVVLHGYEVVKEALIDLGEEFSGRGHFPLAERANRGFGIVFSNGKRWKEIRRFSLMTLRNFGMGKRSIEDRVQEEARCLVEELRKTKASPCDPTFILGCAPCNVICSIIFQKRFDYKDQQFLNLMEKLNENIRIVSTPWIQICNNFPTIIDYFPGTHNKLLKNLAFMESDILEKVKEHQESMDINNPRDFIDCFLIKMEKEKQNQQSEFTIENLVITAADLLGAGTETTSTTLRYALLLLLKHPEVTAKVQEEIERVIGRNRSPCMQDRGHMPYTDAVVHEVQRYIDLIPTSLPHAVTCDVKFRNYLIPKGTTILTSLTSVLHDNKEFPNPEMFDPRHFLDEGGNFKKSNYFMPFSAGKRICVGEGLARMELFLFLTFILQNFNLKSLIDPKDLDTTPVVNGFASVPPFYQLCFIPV

MLM % metabolized @ 30 min [1]: 25-50%
inhibition at 10 min, 10 µM (CYP2C19; human liver microsomes, 10 µM, human liver microsome, read-out: CYP2C19 inhibition (% inh @10 µM)): < 50%
pIC50 (CYP2C19; predicted from % inhibition, text says major CYPs tested): < 5.00
t1/2 (Mice PK study; 10 mg/kg, PO): 6.3 h
AUC(0-inf) (Mice PK study; [3]): 4380 ng·h/mL
AUC(0-t) (Mice PK study; [3]): 3960 ng·h/mL
C0 (Mice PK study; [3]): 968 ng/mL
Cmax (Mice PK study; [3]): 828 ng/mL
Vd (Mice PK study; [3]): 5.24 L/kg
clearance (Mice PK study; [3]): 7.61 mL/min/kg
half-life (Mice PK study; [3]): 8 h
AUC(0-inf) (Mice PK study; [4]): 13500 ng·h/mL
AUC(0-t) (Mice PK study; [4]): 12500 ng·h/mL
Cmax (Mice PK study; [4]): 874 ng/mL
bioavailability (Mice PK study; [4]): 63%
IC50 ([2]; Fig. 1c, human neutrophils, calcium ionophore, x axis μM): 0.146 µM
pEC50 ([2]; human neutrophils induced by 25 µM calcium ionophore, ELISA, read-out: EC50, inhibition of histone H3 citrullination): 6.84
Compound: Cc1c(-c2cc3ccccc3n2Cc2ccc(F)cc2)nc2cc(C(=O)N3CCC[C@@H](N)C3)ccn12 [JBI-589, (R)-(3-aminopiperidin-1-yl)(2-(1-(4-fluorobenzyl)-1H-indol-2-yl)-3-methylimidazo[1,2-a]pyridin-7-yl)methanone]
